Series [1] can be described thus: Aqueous solubility of dasatinib (internal experimentation). The format is physicochemical. The settings on record: aqueous medium. The source says:
Dasatinib in crystalline forms is categorized as a Biopharmaceutical Classification System (“BCS”) Class II (low solubility/high permeability) compound. […] A preparation of dasatinib in a form that is intended to enhance its solubility could increase its bioavailability. One approach for enhancing solubility is to produce an amorphous solid dispersion.

For series [2] the following is noted: crystalline forms; low solubility/high permeability; cited from earlier work.
For series [3] the following is noted: Comparative Example; promptly after spray drying and drying.
Procedure: (§1) Each of the resulting ASDs was placed on stability under accelerated conditions at 40° C./75% RH. The ASDs were assessed at t=0 (i.e., after the secondary drying step), 2 weeks, 1 month, 2 months, 3 months, and 6 months for appearance, amorphicity, glass transition temperature, water content, and assay/total impurities.
Amorphicity (i.e., the lack of crystallinity) for the ASDs was assessed by XRD. Diffraction patterns were obtained using a Rigaku MiniFlex 600. The X-ray source was a long anode Cu Kα. Samples were prepared by placing a small amount of ASD powder on a Rigaku zero-background sample holder with a 0.1 mm indent. A glass slide was then used to firmly pack the powder and ensure the surface of the sample was level with the edge of the sample holder.
Rigaku Data Analysis Software PDXL 2.4.2.0 was used to determine crystallinity. Briefly, a linear background was obtained by connecting the beginning and end of each diffractogram. Peaks were then fitted to split pseudo-Voigt shape by the Lorentzian function. Generally, narrow peaks with full width at half maximum (FWHM) less than 1° were assigned as crystalline phase. If no crystalline phase was detected, the sample was deemed to be amorphous.
For series [4] the following is noted: Comparative Example; promptly after preparation.
Procedure: as §1
In general, about 5-10 mg of ASD powder was loaded in a TA Tzero low-mass aluminum pan and sealed with a Tzero lid.

One may read the solubility as the concentration that dissolves in the medium under given conditions. A higher solubility goes with a readily soluble substance.

In brackets after ≈: the same amount, converted by molar mass. Some results are limits rather than exact numbers.

As for `Cc1nc(Nc2ncc(C(=O)Nc3c(C)cccc3Cl)s2)cc(N2CCN(CCO)CC2)n1` [Dasatinib, N-(2-chloro-6-methylphenyl)-2-[[6-[4-(2-hydroxyethyl)-1-piperazinyl]-2-methyl-4-pyrimidinyl]amino]-5-thiazolecarboxamide], the solubility in series [1] (pH 2, simulated gastric fluid) is about 1400 µg/mL (≈ 2870 µM); in series [1] (pH 6.2, aqueous buffer) it was under 1 µg/mL. Moreover, in series [2], the “Biopharmaceutical Classification System (BCS) class” value is “Class II”.

For the compound `Cc1nc(Nc2ncc(C(=O)Nc3c(C)cccc3Cl)s2)cc(N2CCN(CCO)CC2)n1` [spray-dried material of 100% dasatinib], in series [3], the XRD crystallinity entry was “exhibited crystalline character”. Also, the “glass transition temperature (Tg)” value in series [4] was 125.61 °C.

The values above are taken from US11298356B1, “Amorphous solid dispersions of dasatinib and uses thereof” (NANOCOPOEIA, LLC, priority 2020, dated 2022).
